The target in assay [1] is T1, serotonin transporter (SERT) (Homo sapiens, UniProt P31645).
T1 construct: expressed in transfected cells; host or cells: CHO cells
Kind of assay: Radioligand binding assay, serotonin transporter (SERT). Conditions: binding assay, test compound 1×10^−6 M. In outline: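 Radioligand competition binding with scintillation detection; specific binding is total minus binding under excess unlabelled ligand. Reported as % of control specific binding or % inhibition; IC50 from Hill-equation non-linear regression of competition curves, and Ki via Cheng-Prusoff using radioligand concentration and Scatchard-derived KD.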

Assay [2] concerns the target T2, H1 histaminergic receptors (Homo sapiens, UniProt P35367).
T2 construct: expressed in transfected cells; host or cells: HEK-293 cells
Kind of assay: Radioligand binding assay, histaminergic H1 receptors. Conditions: human recombinant (HEK-293 cells), [3H]pyrilamine 1 nM. In outline: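 Competition binding at human H1 receptors; specific binding taken as total minus non-specific binding in excess unlabelled ligand, scintillation read-out. IC50 from Hill-equation fit of competition curves; Ki by Cheng-Prusoff using radioligand concentration and Kd (from Scatchard plot).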

The target of a further assay is T3, α2C adrenergic receptors (Homo sapiens, UniProt P18825).
T3 construct: expressed in transfected cells; host or cells: CHO cells
T3 sequence (P18825 1-462): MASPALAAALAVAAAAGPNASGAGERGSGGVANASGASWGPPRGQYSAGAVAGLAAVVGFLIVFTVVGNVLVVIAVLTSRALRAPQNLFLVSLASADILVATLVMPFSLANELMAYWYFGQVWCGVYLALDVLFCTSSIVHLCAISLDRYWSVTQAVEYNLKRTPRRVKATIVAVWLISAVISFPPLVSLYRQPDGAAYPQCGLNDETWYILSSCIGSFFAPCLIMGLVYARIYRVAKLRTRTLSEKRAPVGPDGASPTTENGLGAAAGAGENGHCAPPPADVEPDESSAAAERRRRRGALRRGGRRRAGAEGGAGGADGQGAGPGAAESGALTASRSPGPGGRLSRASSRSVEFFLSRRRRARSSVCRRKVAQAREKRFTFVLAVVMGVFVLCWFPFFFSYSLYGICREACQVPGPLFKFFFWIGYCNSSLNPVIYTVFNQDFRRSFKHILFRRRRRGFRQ
Kind of assay: Radioligand binding assay, adrenergic α2C receptors. The settings on record: test compound 1×10^−6 M. In outline:
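Competitive radioligand binding at human α2C receptors, with scintillation counting. Nonspecific binding defined with excess unlabelled ligand; results given as % inhibition of control specific binding. IC50 from Hill-equation fits of competition curves; Ki via Cheng-Prusoff using radioligand concentration and Scatchard-derived KD.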

In another assay the target is T4, 5-HT7 receptor (Homo sapiens, UniProt P34969).
T4 construct: purchased PerkinElmer
Kind of assay: Radioligand binding assay, serotoninergic 5-HT7 receptors. Conditions: binding assay result in %, Table 5a. In outline: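 Competition binding at human 5-HT7 receptors with a radioligand, detected by scintillation counting; non-specific binding was defined with excess unlabelled ligand. IC50 came from Hill-equation fits of competition curves, and Ki from Cheng–Prusoff using radioligand concentration and Scatchard-derived KD.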

Another assay has as its target T5, 5-HT2C receptor (Homo sapiens, UniProt P28335).
T5 construct: expressed in transfected cells; host or cells: HEK-293 cells
T5 sequence (P28335 33-458): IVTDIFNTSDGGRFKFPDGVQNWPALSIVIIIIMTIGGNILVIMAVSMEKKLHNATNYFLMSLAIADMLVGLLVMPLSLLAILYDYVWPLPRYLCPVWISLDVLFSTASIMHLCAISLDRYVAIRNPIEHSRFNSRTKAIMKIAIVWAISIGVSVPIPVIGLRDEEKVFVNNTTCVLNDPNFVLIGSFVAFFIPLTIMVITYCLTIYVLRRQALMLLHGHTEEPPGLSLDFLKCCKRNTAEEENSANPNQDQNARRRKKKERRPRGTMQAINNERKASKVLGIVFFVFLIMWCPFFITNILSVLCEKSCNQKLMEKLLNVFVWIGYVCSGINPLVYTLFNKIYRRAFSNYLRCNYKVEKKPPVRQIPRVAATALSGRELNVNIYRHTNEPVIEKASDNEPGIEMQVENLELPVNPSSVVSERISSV
Kind of assay: Radioligand binding assay, serotoninergic 5-HT2C receptors. The settings on record: test compound 1×10^−6 M.

Assay [3] has as its target T6, 5-HT1A receptor (rat hippocampus) (Rattus norvegicus, UniProt P19327).
T6 construct: hippocampus; from tissue; host or cells: rat hippocampus
T6 sequence (P19327 1-422): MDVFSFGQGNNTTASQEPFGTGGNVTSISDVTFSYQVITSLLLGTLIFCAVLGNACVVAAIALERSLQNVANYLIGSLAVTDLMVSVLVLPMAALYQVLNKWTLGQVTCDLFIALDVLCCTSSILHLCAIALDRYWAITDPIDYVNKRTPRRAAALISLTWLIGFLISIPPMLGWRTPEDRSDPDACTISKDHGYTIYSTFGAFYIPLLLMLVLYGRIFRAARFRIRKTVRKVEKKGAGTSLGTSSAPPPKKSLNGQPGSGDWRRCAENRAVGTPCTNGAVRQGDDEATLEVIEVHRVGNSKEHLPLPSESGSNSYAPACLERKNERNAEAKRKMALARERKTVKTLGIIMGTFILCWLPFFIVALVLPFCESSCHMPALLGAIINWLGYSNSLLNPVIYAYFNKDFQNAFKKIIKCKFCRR
Kind of assay: Radioligand binding assay, serotoninergic 5-HT1A receptors. Conditions: binding assay result in %, Table 5a.

In assay [4] the target is dopaminergic receptors D2 (Homo sapiens, UniProt P14416). Kind of assay: Radioligand binding assay, dopaminergic D2 receptors. The settings on record: for inhibition at 1 µM: binding assay, test compound 1×10^−6 M; for Ki: read-out: Inhibition constants Ki for D2 receptors, D2. The gist of the method: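 Total binding is counted by scintillation and non-specific binding subtracted using an excess of unlabelled ligand. IC50 comes from a Hill-equation fit with slope factor; Ki follows Cheng–Prusoff.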
Chain of dopaminergic receptors D2 (P14416 whole entry): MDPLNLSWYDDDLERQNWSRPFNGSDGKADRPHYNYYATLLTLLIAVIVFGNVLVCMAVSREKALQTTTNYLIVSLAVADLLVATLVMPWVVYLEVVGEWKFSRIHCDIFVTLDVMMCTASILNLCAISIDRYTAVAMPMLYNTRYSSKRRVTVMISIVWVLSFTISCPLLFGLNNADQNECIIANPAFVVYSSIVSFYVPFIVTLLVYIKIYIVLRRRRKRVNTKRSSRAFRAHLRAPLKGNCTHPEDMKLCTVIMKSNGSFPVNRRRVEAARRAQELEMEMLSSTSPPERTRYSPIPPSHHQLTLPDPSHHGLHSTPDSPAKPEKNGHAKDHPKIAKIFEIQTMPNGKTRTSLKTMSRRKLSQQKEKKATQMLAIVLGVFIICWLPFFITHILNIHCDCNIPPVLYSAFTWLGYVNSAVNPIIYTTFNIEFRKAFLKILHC

T4 sequence (P34969 whole entry): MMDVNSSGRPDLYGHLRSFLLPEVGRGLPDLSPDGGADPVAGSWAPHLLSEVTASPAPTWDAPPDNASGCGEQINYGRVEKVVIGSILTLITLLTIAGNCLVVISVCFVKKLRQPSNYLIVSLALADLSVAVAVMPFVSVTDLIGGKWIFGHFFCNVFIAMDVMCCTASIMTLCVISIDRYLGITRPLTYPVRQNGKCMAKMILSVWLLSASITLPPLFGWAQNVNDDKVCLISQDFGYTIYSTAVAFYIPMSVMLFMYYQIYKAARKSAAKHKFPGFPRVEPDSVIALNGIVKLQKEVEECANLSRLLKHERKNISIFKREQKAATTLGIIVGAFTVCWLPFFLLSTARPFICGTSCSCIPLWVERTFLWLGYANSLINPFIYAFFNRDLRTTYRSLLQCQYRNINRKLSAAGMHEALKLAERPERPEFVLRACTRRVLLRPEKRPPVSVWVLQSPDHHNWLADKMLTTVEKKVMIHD
T1 sequence (P31645 whole entry): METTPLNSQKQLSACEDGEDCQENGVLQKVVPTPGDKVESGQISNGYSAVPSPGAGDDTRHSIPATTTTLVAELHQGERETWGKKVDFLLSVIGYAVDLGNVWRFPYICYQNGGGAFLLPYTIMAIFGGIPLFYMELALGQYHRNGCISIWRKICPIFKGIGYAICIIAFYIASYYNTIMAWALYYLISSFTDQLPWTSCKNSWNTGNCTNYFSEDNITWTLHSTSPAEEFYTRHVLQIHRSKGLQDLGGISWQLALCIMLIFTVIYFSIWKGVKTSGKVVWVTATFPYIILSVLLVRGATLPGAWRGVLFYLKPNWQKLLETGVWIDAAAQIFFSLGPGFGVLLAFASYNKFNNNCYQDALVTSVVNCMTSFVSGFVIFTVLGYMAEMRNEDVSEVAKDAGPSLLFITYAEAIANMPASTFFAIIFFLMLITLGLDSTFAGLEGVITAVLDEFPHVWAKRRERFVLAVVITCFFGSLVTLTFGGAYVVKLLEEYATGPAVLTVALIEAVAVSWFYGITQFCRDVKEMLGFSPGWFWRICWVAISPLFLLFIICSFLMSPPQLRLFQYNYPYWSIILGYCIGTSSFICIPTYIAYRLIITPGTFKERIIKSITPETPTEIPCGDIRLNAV
T2 sequence (P35367 whole entry): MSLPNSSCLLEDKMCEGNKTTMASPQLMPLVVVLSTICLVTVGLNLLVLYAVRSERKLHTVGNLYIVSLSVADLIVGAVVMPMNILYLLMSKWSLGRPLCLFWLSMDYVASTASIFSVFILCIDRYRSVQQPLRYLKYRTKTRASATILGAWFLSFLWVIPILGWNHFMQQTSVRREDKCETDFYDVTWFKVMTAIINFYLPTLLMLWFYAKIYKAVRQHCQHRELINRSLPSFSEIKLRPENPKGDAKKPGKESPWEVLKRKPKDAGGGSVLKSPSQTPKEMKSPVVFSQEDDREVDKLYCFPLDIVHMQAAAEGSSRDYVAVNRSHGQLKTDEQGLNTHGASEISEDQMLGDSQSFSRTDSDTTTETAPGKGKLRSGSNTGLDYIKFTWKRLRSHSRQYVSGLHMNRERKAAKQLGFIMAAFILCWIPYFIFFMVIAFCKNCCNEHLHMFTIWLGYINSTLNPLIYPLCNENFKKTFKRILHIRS

In the case of `COc1ccc2cc(S(=O)(=O)N[C@@H]3CCN(CCCc4noc5cc(F)ccc45)C3)ccc2c1` [Compound 230, N-[(3R)-1-[3-(6-Fluoro-1,2-benzoxazol-3-yl)propyl]pyrrolidin-3-yl]-6-methoxy-naphthalene-2-sulphonamide], the inhibition at 1 µM in assay [1] stood at 75%; in assay [2], 71%; at α2C adrenergic receptors, 92%; at 5-HT7 receptor it was 87%; at 5-HT2C receptor, 91%; in assay [3] it was 77%. The inhibition at 1 µM in assay [4] amounted to 99%. Also, in assay [4], the Ki is 1.1 nM.

Regarding `COc1ccc2cc(S(=O)(=O)N[C@H]3CCN(CCCc4noc5cc(F)ccc45)C3)ccc2c1` [Compound 231, N-[(3S)-1-[3-(6-Fluoro-1,2-benzoxazol-3-yl)propyl]pyrrolidin-3-yl]-6-methoxy-naphthalene-2-sulphonamide], the inhibition at 1 µM stood at 63% in assay [1]; 54% in assay [2]; 89% on α2C adrenergic receptors; 88% on 5-HT7 receptor; 75% at 5-HT2C receptor; 34% in assay [3]. The inhibition at 1 µM in assay [4] is 95%. Further, in assay [4], the inhibition constant (Ki) was found to be 6.4 nM.

`O=S(=O)(NC1CCN(CCCc2noc3cc(F)ccc23)C1)c1cc2ccc(F)cc2s1` (stereo not shown) [Compound 234, 6-Fluoro-N-[1-[3-(6-fluoro-1,2-benzoxazol-3-yl)propyl]pyrrolidin-3-yl]benzothiophene-2-sulphonamide]: the inhibition at 1 µM in assay [1] turned out to be 65%; in assay [2] it was 75%; at α2C adrenergic receptors, 90%; at 5-HT7 receptor, 97%; on 5-HT2C receptor, 86%; in assay [3] it was 45%. Further, the inhibition at 1 µM in assay [4] stood at 99%.

Regarding `O=S(=O)(NCC1CCN(CCCc2noc3cc(F)ccc23)C1)c1ccc2cc(Cl)ccc2c1` (stereo not shown) [Compound 237, 6-Chloro-N-[[1-[3-(6-fluoro-1,2-benzoxazol-3-yl)propyl]pyrrolidin-3-yl]methyl]naphthalene-2-sulphonamide], the inhibition at 1 µM in assay [1] stood at 61%; in assay [2], 66%; at α2C adrenergic receptors it was 82%; on 5-HT7 receptor, 96%; at 5-HT2C receptor, 79%; in assay [3], 45%. Moreover, the inhibition at 1 µM in assay [4] is 97%.

For the compound `O=S(=O)(NCC1CCN(CCCc2noc3cc(F)ccc23)C1)c1ccc2ccccc2c1` (stereo not shown) [Compound 240, N-[[1-[3-(6-Fluoro-1,2-benzoxazol-3-yl)propyl]pyrrolidin-3-yl]methyl]-naphthalene-2-sulphonamide], the inhibition at 1 µM in assay [1] was found to be 43%; in assay [2], 55%; at α2C adrenergic receptors, 84%; at 5-HT7 receptor, 90%; at 5-HT2C receptor, 81%; in assay [3], 30%. The inhibition at 1 µM in assay [4] is 95%.

As for `O=S(=O)(NCC1CCN(CCCc2noc3cc(F)ccc23)C1)c1ccc(-c2ccccc2)cc1` (stereo not shown) [Compound 241, N-[[1-[3-(6-Fluoro-1,2-benzoxazol-3-yl)propyl]pyrrolidin-3-yl]methyl]-4-phenyl-benzenesulphonamide], the inhibition at 1 µM in assay [1] was 71%; in assay [2], 69%; on α2C adrenergic receptors, 87%; on 5-HT7 receptor it was 100%; at 5-HT2C receptor, 66%; in assay [3], 39%. Also, in assay [4], the inhibition at 1 µM was 81%.

For `O=S(=O)(NCC1CCN(CCOc2cccc3c2OCCO3)C1)c1ccc(C(F)(F)F)cc1` (stereo not shown) [Compound 293, N-[[1-[2-(2,3-Dihydro-1,4-benzodioxin-5-yloxy)ethyl]pyrrolidin-3-yl]methyl]-4-(trifluoromethyl)benzenesulphonamide], the inhibition at 1 µM in assay [1] worked out at 82%; in assay [2], 38%; at α2C adrenergic receptors, 95%; at 5-HT7 receptor, 90%; on 5-HT2C receptor it was 50%; in assay [3], 100%. In assay [4], the inhibition at 1 µM worked out at 66%.

Turning to `O=S(=O)(NCC1CCN(CCOc2cccc3c2OCCO3)C1)c1cccc(F)c1` (stereo not shown) [Compound 298, N-[[1-[2-(2,3-Dihydro-1,4-benzodioxin-5-yloxy)ethyl]pyrrolidin-3-yl]-methyl]-3-fluoro-benzenesulphonamide], the inhibition at 1 µM in assay [1] stood at 72%; in assay [2], 40%; at α2C adrenergic receptors it was 94%; at 5-HT7 receptor, 93%; at 5-HT2C receptor it was 37%; in assay [3] it was 97%. Also, the inhibition at 1 µM in assay [4] was 52%.

With `O=S(=O)(NCC1CCN(CCOc2cccc3c2OCCO3)C1)c1ccc(F)cc1` (stereo not shown) [Compound 300, N-[[1-[2-(2,3-Dihydro-1,4-benzodioxin-5-yloxy)ethyl]pyrrolidin-3-yl]-methyl]-4-fluoro-benzenesulphonamide], the inhibition at 1 µM in assay [1] was found to be 64%; in assay [2], 28%; at α2C adrenergic receptors, 92%; at 5-HT7 receptor, 90%; on 5-HT2C receptor it was 34%; in assay [3] it was 99%. The inhibition at 1 µM in assay [4] was 35%.

On to `O=S(=O)(NCC1CCN(CCOc2cccc3c2OCCO3)C1)c1cccc(O)c1` (stereo not shown) [Compound 303, N-[[1-[2-(2,3-Dihydro-1,4-benzodioxin-5-yloxy)ethyl]pyrrolidin-3-yl]-methyl]-3-hydroxy-benzenesulphonamide], for which the inhibition at 1 µM turned out to be 73% in assay [1]; 68% in assay [2]; 100% at α2C adrenergic receptors; 98% on 5-HT7 receptor; 47% on 5-HT2C receptor; 96% in assay [3]. In addition, in assay [4], the inhibition at 1 µM amounted to 79%.

Consider `O=S(=O)(NCC1CCN(CCOc2cccc3c2OCCO3)C1)c1ccc(Br)cc1` (stereo not shown) [Compound 305, 4-Bromo-N-[[1-[2-(2,3-dihydro-1,4-benzodioxin-5-yloxy)ethyl]pyrrolidin-3-yl]methyl]benzenesulphonamide], for which the inhibition at 1 µM in assay [1] is 94%; in assay [2] it was 54%; at α2C adrenergic receptors it was 96%; at 5-HT7 receptor, 96%; at 5-HT2C receptor it was 59%; in assay [3], 101%. Moreover, the inhibition at 1 µM in assay [4] stood at 57%.
